Experimental data published in patent US12329171B1, “Natural food preservative” (IMAM MOHAMMAD IBN SAUD ISLAMIC UNIVERSITY, priority 2024, dated 2025).

What was measured:
S. aureus = test: Well diffusion assay, antibacterial; format: cell-based, Staphylococcus aureus; settings: 10 μl
From the text: (§1) The investigation focused on the antibacterial properties of extracts derived from onion peel, pomegranate peel, and chia seed, particularly when encapsulated in nanoformulations (OPE-CSNP and PPE-CSNP). The extracts, known for their richness in bioactive compounds like phenolic compounds, flavonoids, and tannins, were explored for potential health benefits against various microbes. The study employed the inhibition zone diameter to evaluate the effectiveness of these natural extracts in inhibiting microbial growth, thereby assessing their antimicrobial properties.
(§2) Moreover, these composites show promise as food preservatives, potentially extending shelf life, given their moderate antimicrobial activity against B. cereus and S. aureus.

B. cereus = test: Well diffusion assay, antibacterial; format: cell-based, Bacillus cereus; settings: 10 μl
From the text: as §1, §2

CC1(C)S[C@@H]2[C@H](NC(=O)[C@H](N)c3ccccc3)C(=O)N2[C@H]1C(=O)O [Ampicillin, ampicillin]
Inhibition zone diameter (mm) S. aureus (S. aureus): 16 mm
Inhibition zone diameter (mm) B. cereus (B. cereus): 16 mm

penicillin
Inhibition zone diameter (mm) S. aureus (S. aureus): 14 mm
Inhibition zone diameter (mm) B. cereus (B. cereus): 14 mm
